Laboratory results taken from US9216997B2, “Tri-heterocyclic derivatives, preparation process and uses thereof” (SHANGHAI DE NOVO PHARMATECH CO LTD., priority 2011, dated 2015).
Where two headings read alike, the source gives them in different places.

How the values were obtained:
MV4-11 cell = MV4-11 cell proliferation assay (CellTiter-Glo); assay type: cell-based, human; settings: MV4-11 cells, 72 hours, read-out: IC50 inhibiting MV4-11 cell proliferation
Experimental: Test compounds were prepared in 100% DMSO and added to the cells to achieve final concentrations from 0.2 uM to […] (10 concentration points in 3 fold serial dilution). The culture plates were then incubated at 37 C in 5% CO2 for 72 hours.
After 72 hours, the cell morphology was observed under an inverted microscope. Cell viability was then quantified at room temp using a CellTiter-Glo assay (Promega G7571) following the manufacture's instruction. Briefly, a volume of 100 ul Celltiter-Glo reagenet was added to each well to induce cell lysis. After 10 min incubation at RT, a luminescent signal was produced by measuring the amount of ATP. The signal was directly proportional to the number of viable cells present in culture.

FLT3 = FLT3 (Homo sapiens (Human), UniProt P36888); experiment: FLT3 kinase inhibition assay (Caliper mobility shift assay); assay type: biochemical; settings: 0.9 nM purified FLT3, 97 uM ATP, 28° C., 60 min; read-out: IC50 inhibiting the FLT3 kinase
Experimental: The average of inhibitory rate of Flt3 kinase and IC50 was determined by a Caliper's mobility shift assay (MSA).
FLT3 is a receptor tyrosine kinase involved in survival and proliferation of leukemic cells. Constitutively activating FLT3 mutations has been found in about 30% of all patients with acute myeloid leukemia (AML). The tested compounds were screened for their ability to inhibit FLT3 kinase activity using Caliper's mobility shift assay (MSA). The assay uses a microfluidic chip to measure the conversion of a fluorescent peptide substrate to a phosphorylated product following separation by electrophoresis.
Data were collected on Caliper and converted into inhibition values. IC50 values were obtained using XLfit graphic program.

[1] = tested on: MV4-11 acute myeloid leukemia zenograft tumor model; experiment: MV4-11 acute myeloid leukemia xenograft tumor model; assay type: in vivo, NOD/SCID female mice; settings: 3 mg/kg, po, qd, 22 days; tumor-bearing NOD/SCID mice
Experimental: Compound C (18 mg) in 22% 2-hydroxypropyl-β=cyclodextrin (60 ml), ultrasonic 15 min to dissolve, an average of 2.14 ml divided into each of the small bottle, reserved 22 bottles for experiment.
6-8 weeks NOD/SCID female mice (18-25 g) were used. Each mouse was inoculated subcutaneously at the right flank with MV4-11 tumor cells (1×10^7) in 0.1 ml of PBS/Matrigel (1:1) for tumor development. The treatments were started when the mean tumor size reached 188 mm^3. The animals were separated even as test and control group randomly, and each group is consisted of 6 tumor-bearing mice. The test articles were orally administered (2.14 ml) to the tumor-bearing mice once a day. The date of tumor cell inoculation is denoted as day 0. The tumor volume was measured every four days, and the animals were scarified at 22 days. Statistical analyses of difference in tumor volume among the groups were evaluated using a one-way ANOVA followed by individual comparisons using Games-Howell (equal variance not assumed).
All data were analyzed using SPSS 17.0. p<0.05 was considered to be statistically significant. The antitumor activities of compounds of disclose are calculated by the formula: T C %=TRTV/CRTV×100%. (TRTV: drug treated group RTV; CRTV: vehicle treated group RTV). Evaluation standard: T/C (%)>40% considered as not effective; T/C (%) 40% considered as effective with P<0.05.

Sequence of FLT3 (P36888 27-993): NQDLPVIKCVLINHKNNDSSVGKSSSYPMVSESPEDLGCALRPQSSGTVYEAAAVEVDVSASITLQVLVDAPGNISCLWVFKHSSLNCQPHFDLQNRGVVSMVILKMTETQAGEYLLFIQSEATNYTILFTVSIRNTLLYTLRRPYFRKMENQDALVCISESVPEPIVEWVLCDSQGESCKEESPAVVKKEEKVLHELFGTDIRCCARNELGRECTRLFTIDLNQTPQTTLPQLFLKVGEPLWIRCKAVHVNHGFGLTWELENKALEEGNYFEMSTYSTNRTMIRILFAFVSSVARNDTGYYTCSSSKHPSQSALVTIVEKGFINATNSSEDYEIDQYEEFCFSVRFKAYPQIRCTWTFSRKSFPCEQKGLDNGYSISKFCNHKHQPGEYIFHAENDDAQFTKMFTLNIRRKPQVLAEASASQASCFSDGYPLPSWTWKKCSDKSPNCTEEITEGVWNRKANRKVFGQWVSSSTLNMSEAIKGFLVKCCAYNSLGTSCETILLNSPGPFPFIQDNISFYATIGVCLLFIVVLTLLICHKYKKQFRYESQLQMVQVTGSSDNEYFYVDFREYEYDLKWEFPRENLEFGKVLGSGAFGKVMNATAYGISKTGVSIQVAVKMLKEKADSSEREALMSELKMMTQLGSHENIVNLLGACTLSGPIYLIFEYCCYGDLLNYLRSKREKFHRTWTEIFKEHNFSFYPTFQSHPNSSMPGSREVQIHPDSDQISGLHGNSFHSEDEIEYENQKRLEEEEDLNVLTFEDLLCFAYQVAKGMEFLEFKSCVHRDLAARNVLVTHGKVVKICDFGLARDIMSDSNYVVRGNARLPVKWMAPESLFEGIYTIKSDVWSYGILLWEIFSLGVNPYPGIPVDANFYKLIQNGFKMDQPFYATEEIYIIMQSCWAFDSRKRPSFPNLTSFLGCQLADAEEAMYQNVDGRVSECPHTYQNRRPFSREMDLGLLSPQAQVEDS

IC50 (MV4-11 cell; Homo sapiens) [pM] | IC50 (MV4-11 cell) [pM] | IC50 (FLT3) [pM] | Structure (SMILES) | T/C [1] [%]
12900 | – | – | CC(C)(C)c1cc(NC(=O)Nc2ccc(-c3cn4c(n3)sc3nc(OCC5(NS(C)(=O)=O)CC5)ccc34)cc2)no1 [compound 35-3] | –
900 | – | – | CC(C)(C)c1cc(NC(=O)Nc2ccc(-c3cn4c(n3)sc3nc(OC[C@@H]5CCCN5)ccc34)cc2)no1 [compound 35-4] | –
– | 500 | 52000 | CNC1(COc2ccc3c(n2)sc2nc(-c4ccc(NC(=O)Nc5cc(C(C)(C)C)on5)cc4)cn23)CC1 [compound 39-1] | –
4700 | – | – | CNC1(COc2ccc3c(c2)sc2cc(-c4ccc(NC(=O)Nc5cc(C(C)(C)C)on5)cc4)cn23)CC1 [compound 80] | –
300 | – | 11000 | CC(C)(C)c1cc(NC(=O)Nc2ccc(-c3cn4c(n3)sc3nc(OCC5CCNCC5)ccc34)cc2)no1 [compound 28-9] | –
200 | – | 29000 | CC(C)(C)c1cc(NC(=O)Nc2ccc(-c3cn4c(n3)sc3nc(NCCN5CCOCC5)ccc34)cc2)no1 [compound 53-1] | –
300 | – | – | CN1CCOC(COc2ccc3c(n2)sc2nc(-c4ccc(NC(=O)Nc5cc(C(C)(C)C)on5)cc4)cn23)C1 (centres unmarked) [compound 28-13] | –
200 | – | 10900 | CN1C[C@@H]2C[C@H]1CN2CCOc1ccc2c(n1)sc1nc(-c3ccc(NC(=O)Nc4cc(C(C)(C)C)on4)cc3)cn12 [compound 28-8] | –
1400 | – | 38000 | CC(C)(C)c1cc(NC(=O)Nc2ccc(-c3cn4c(n3)sc3nc(OCC5(N)CC5)ccc34)cc2)no1 [compound 35-1] | –
800 | – | – | CC(C)(C)c1cc(NC(=O)Nc2ccc(-c3cn4c(n3)sc3nc(N5CCOCC5)ccc34)cc2)no1 [compound 46] | –
560 | – | – | CC(C)(C)c1cc(NC(=O)Nc2ccc(-c3cn4c(n3)sc3cc(OCCN5CCOCC5)ccc34)cc2)no1 [Quizartinib, reference compound] | 9
840 | – | – | CC(C)(C)c1cc(NC(=O)Nc2ccc(-c3cn4c(n3)sc3nc(OCC5CNC5)ccc34)cc2)no1 [compound 28-11] | –
– | 40 | 19000 | CCN(CC)CCNc1ccc2c(n1)sc1nc(-c3ccc(NC(=O)Nc4cc(C(C)(C)C)on4)cc3)cn12 [compound 89-3] | –
420 | – | – | CCN(CC)CCNc1ncc2c(n1)sc1nc(-c3ccc(NC(=O)Nc4cc(C(C)(C)C)on4)cc3)cn12 [Compound 97-2] | –
50 | – | 68000 | CC(C)(C)c1cc(NC(=O)Nc2ccc(-c3cn4c(n3)sc3nc(OCCN5C[C@@H]6C[C@H]5CO6)ccc34)cc2)no1 [compound 28-15] | –
400 | – | 34000 | CC(C)(C)c1cc(NC(=O)Nc2ccc(-c3cn4c(n3)sc3nc(OCCN5CCNCC5)ccc34)cc2)no1 [compound 28-3] | –
– | 80 | 28000 | CC(C)(C)c1cc(NC(=O)Nc2ccc(-c3cn4c(n3)sc3nc(NCCN5C[C@@H]6C[C@H]5CO6)ccc34)cc2)no1 [compound 89-4] | –
400 | – | 47000 | CC(C)(C)c1cc(NC(=O)Nc2ccc(-c3cn4c(n3)sc3nc(OCCCN5CCOCC5)ccc34)cc2)no1 [compound 28-6] | –

IC50 (MV4-11 cell; Homo sapiens) [pM] | IC50 (MV4-11 cell) [pM] | IC50 (FLT3) [pM] | Structure (SMILES) | T/C [1] [%]
1260 | – | – | CC(C)(C)c1cc(NC(=O)Nc2ccc(-c3cn4c(n3)sc3nc(N5CCC(N6CCOCC6)CC5)ncc34)cc2)no1 [compound 8-6] | –
– | 290 | 34000 | CC(C)(C)c1cc(NC(=O)Nc2ccc(-c3cn4c(n3)sc3nc(N5CCC(N6CCOCC6)CC5)ccc34)cc2)no1 [compound 89-5] | –
470 | – | – | CC(C)(C)c1cc(NC(=O)Nc2ccc(-c3cn4c(n3)sc3nc(OCC5CNCCO5)ccc34)cc2)no1 (centres unmarked) [compound 28-12] | –
30 | – | 9600 | CCN(CC)CCOc1ccc2c(n1)sc1nc(-c3ccc(NC(=O)Nc4cc(C(C)(C)C)on4)cc3)cn12 [compound 28-14] | –
300 | – | 1200 | CC(C)(C)c1cc(NC(=O)Nc2ccc(-c3cn4c(n3)sc3nc(OCCN5C[C@@H]6C[C@H]5CN6)ccc34)cc2)no1 [compound 28-7] | –
300 | – | 13000 | CN1CCC(COc2ccc3c(n2)sc2nc(-c4ccc(NC(=O)Nc5cc(C(C)(C)C)on5)cc4)cn23)CC1 [compound 28-10] | –
1100 | – | – | CC(C)(C)c1cc(NC(=O)Nc2ccc(-c3cn4c(n3)sc3nc(N5CCNCC5)ncc34)cc2)no1 [compound 8-4] | –
– | 30 | 10000 | CN(C)CCNc1ccc2c(n1)sc1nc(-c3ccc(NC(=O)Nc4cc(C(C)(C)C)on4)cc3)cn12 [compound 89-1] | –
500 | – | 43000 | CN(CCN1CCOCC1)c1ccc2c(n1)sc1nc(-c3ccc(NC(=O)Nc4cc(C(C)(C)C)on4)cc3)cn12 [compound 53-2] | –
200 | – | 18000 | CN(C)CCOc1ccc2c(n1)sc1nc(-c3ccc(NC(=O)Nc4cc(C(C)(C)C)on4)cc3)cn12 [compound 28-2] | –
– | – | 19000 | CC(C)(C)c1cc(NC(=O)Nc2ccc(-c3cn4c(n3)sc3nc(N5CCOCC5)ncc34)cc2)no1 [compound 8-1] | –
960 | – | – | CC(C)(C)c1cc(NC(=O)Nc2ccc(-c3cn4c(n3)sc3nc(NCC5(N)CC5)ccc34)cc2)no1 [compound 63-1] | –
70 | – | – | CC(C)(C)c1cc(NC(=O)Nc2ccc(-c3cn4c(n3)sc3nc(NCCN5C[C@@H]6C[C@H]5CO6)ncc34)cc2)no1 [Compound 97-3] | –
580 | – | – | CNC1(CNc2ccc3c(n2)sc2nc(-c4ccc(NC(=O)Nc5cc(C(C)(C)C)on5)cc4)cn23)CC1 [compound 63-2] | –
520 | – | – | CC(=O)NC1(COc2ccc3c(n2)sc2nc(-c4ccc(NC(=O)Nc5cc(C(C)(C)C)on5)cc4)cn23)CC1 [compound 35-2] | –
700 | – | – | CC(C)(C)c1cc(NC(=O)Nc2ccc(-c3cn4c(n3)sc3nc(OCCN5CCOCC5)ccc34)cc2)no1 [compound 28-1] | –
30 | – | – | CN(C)CCNc1ncc2c(n1)sc1nc(-c3ccc(NC(=O)Nc4cc(C(C)(C)C)on4)cc3)cn12 [Compound 97-1] | –
